Values belong to the compound of their own block, whether it stands above or below them.
Key:
[1] = test system: human skin; experiment: Skin atrophy in human volunteers treated with topical glucocorticoid; type: in vivo; settings: 0.05% cream daily, 2-week treatment
Description: (§1) Glucocorticoid CBP was applied topically as a 0.05% cream to the skin of right arm of healthy human volunteers (age 32-65) once or every 24 h for 2 weeks. Untreated left arm skin was used as control. Whole human skin samples were used for the molecular biological studies.
(§2) Quantification of the epidermal width and number of basal keratinocytes (as the readouts for skin atrophy and hypoplasia of raft epidermis) was performed in dorsal skin and ORC sections stained with H&E. The number of dermal cells was determined on sections stained with Masson's trichrome in the upper (papillary) dermis that is distinguishable from the lower (reticular) dermis (Driskell et al, 2013). At least 10 individual fields per slide with at least three samples in each experimental group were counted using Axioplan2 microscope software (Carl Zeiss). All measurements are presented as % to corresponding control.

[2] = test system: REDD1; experiment: REDD1 mRNA expression in human skin (RT-PCR); type: in vivo; settings: human skin treated with CBP 0.05% cream for 24 h-2 weeks
Description: as §1
Total RNA from murine epidermis, whole human skin, and cell cultures was isolated with RiboPure kit (Ambion, Life Technologies, Grand Island, N.Y., USA). Total RNA from murine s.c. adipose was isolated with RNeasy Lipid Tissue Kit (Qiagen, Valencia, Calif., USA). The RNA samples were treated with TURBOT™ DNase (Ambion). The gene expression was assessed using semi-quantitative two-step RT-PCR and quantitative Q-PCR. Reverse transcription was performed using 1 μg RNA, random hexamers, and M-MLV reverse transcriptase (Invitrogen, Life Technologies), according to manufacturer instructions. The gene-specific primers were designed with NCBI Primer-BLAST (data not shown, see Baida et al., EMBO, 2015, at Supplementary Table S4). Q-PCR with SYBR Green detection was performed on the Applied Biosystems® 7000 Real-Time PCR instrument (Life Technologies). […] For semi-quantitative PCRs, Taq DNA polymerase (Promega) was used, and PCR products were separated on 1.5% agarose gel and visualized using automated imaging system (Bio-Rad, Hercules, Calif., USA). […]

[3] = test system: organotypic raft cultures of primary human epidermal keratinocytes (NHEK); experiment: Hypoplasia/proliferation in 3-D organotypic raft cultures (ORC) of NHEK; type: cell-based; settings: pGIPZ-infected ORCs, 7-day treatment with CBP 5 μM
Description: (§3) Three-dimensional (3-D) organotypic raft cultures (ORC) of human epidermis were made as described in Getsios et al (2009). Briefly, neonatal human epidermal keratinocytes (NHEK) were infected with shRNA- and pGIPZ-expressing lentiviruses followed, 48 h later, by selection for puromycin (2 μg/ml) resistance. Selected keratinocyte cultures were reseeded onto collagen gels with embedded J2-3T3 fibroblasts and cultured at the air-liquid interface as previously described for 3 days to allow the initial phase of epidermis formation. The standard ORC medium contains high 5×10^−7 M hydrocortisone. […]
as §2, with “All measurements are presented as % to corresponding control.” left out
The numbers of BrdU+, p63+, and total number of basal keratinocytes were evaluated in 10 fields of view in each skin/ORC sample under the microscope. […]

[4] = test system: REDD1; experiment: REDD1 expression in organotypic raft cultures (Q-PCR, Western blot); type: cell-based, human; settings: control pGIPZ ORCs, short-term (6 h) and chronic (7 days) CBP
Description: as §3, with “hydrocortisone. In our experiments, ORC were cultured in the medium with 10^−8 M hydrocortisone during first 3 days and then were treated with glucocorticoid CBP (5×10^−6 M) or vehicle control (0.05% DMSO) for 7 days. Rafts were treated with BrdU (10^−7 M) 1 h before harvesting and fixed in formalin.” for “hydrocortisone.”
Total RNA from murine epidermis, whole human skin, and cell cultures was isolated with RiboPure kit (Ambion, Life Technologies, Grand Island, N.Y., USA). […] The gene expression was assessed using semi-quantitative two-step RT-PCR and quantitative Q-PCR. […] For semi-quantitative PCRs, Taq DNA polymerase (Promega) was used, and PCR products were separated on 1.5% agarose gel and visualized using automated imaging system (Bio-Rad, Hercules, Calif., USA). […]

[5] = test system: GR; settings: Schäcke et al, 2009; cited from earlier work

- negative effect on basal keratinocytes (compared with FA-treated mice) [1]: less pronounced
Compound: CCC(=O)O[C@]1(C(=O)CCl)[C@@H](C)C[C@H]2[C@@H]3CCC4=CC(=O)C=C[C@]4(C)[C@@]3(F)[C@@H](O)C[C@@]21C [CBP, clobetasol propionate]
- REDD1 mRNA [2]: strongly up-regulated
- decrease in number and proliferation (BrdU incorporation) of basal keratinocytes [3]: 25-40%
- REDD1 mRNA and protein [4]: induced REDD1 mRNA and protein

Compound: Cc1ccc2c(NC[C@](O)(CC(C)(C)c3cc(F)cc4c3OCC4)C(F)(F)F)cccc2n1 [ZK245186/mapracorat]
- anti-inflammatory effect [5]: preserve the anti-inflammatory effect of glucocorticoids
- skin atrophy [5]: do not induce skin atrophy
